From US10022355B2, “Diaryl and arylheteroaryl urea derivatives as modulators of the 5-HT2A serotonin receptor useful for the prophylaxis and treatment of REM sleep behavior disorder” (Axovant Sciences GmbH, priority 2015, dated 2018)
Entries after “also recorded” stand apart in the source; their conditions may differ.

What was measured:
[1] = elderly patients; cited from earlier work
[2] = Completed Phase 1 and Phase 2 clinical studies of nelotanserin (originally for primary insomnia); type: in vivo, human
Procedure: Nelotanserin: Nelotanserin (RVT-102), previously known as APD-125, is a potent and selective 5HT2a receptor inverse agonist, and is currently being developed as an oral treatment for REM sleep behavior disorder in patients with DLB. Originally being developed for primary insomnia, seven clinical studies have been completed to date that included five Phase 1 and two Phase 2 studies, and 792 individuals have been exposed to nelotanserin over the dose range of 20 to 160 mg and up to 14 days.

| Structure (SMILES) | side effects [1] | sleep maintenance and consolidation ([2]; Phase 1 and Phase 2 studies) | slow wave sleep ([2]; Phase 1 and Phase 2 studies) | safety and tolerability profile ([2]; five Phase 1 and two Phase 2 studies, 792 individuals exposed, dose range 20 to 160 mg, up to 14 days) | number of sleep phase transitions ([2]; previous clinical studies) |
| --- | --- | --- | --- | --- | --- |
| O=C1CN=C(c2ccccc2Cl)c2cc([N+](=O)[O-])ccc2N1 [Clonazepam, clonazepam] | confusion, daytime sedation, and increased risk of falls | – | – | – | – |
| COc1ccc(NC(=O)Nc2ccc(F)cc2F)cc1-c1c(Br)cnn1C [nelotanserin] | – | improves sleep maintenance and consolidation | increases slow wave sleep | favorable safety and tolerability profile; also recorded: acceptable safety and tolerability profile | reduces the number of sleep phase transitions |
